# Reference: patent US4853221A, “Method for treating non-small cell lung cancer, head and neck cancers and breast cancer” (Warner-Lambert Company, priority 1987, dated 1989)
# Experiments:
# P388 = assay: Antitumor activity against P388 leukemia in mice; assay type: in vivo, mouse; conditions: for Life Span % ILS / Life Span % T/C: optimal dose 40 mg/kg (dose range 80-2.5), ip daily, Days 1-9
# Protocol: The growth inhibition properties of 5-methyl-6-[[(3,4,5-trimethoxyphenyl)amino]methyl]-2,4-quinazolinediamine (trimetrexate) against several transplanted murine tumors were evaluated employing the antitumor screening program of the Drug Evaluation Branch of the National Cancer Institute. The protocols for these tests is described in Cancer Chemotherapy Reports, 3: 1-103 (1972). The dosing schedules are results from these tests appear in Table IV.
# In the L1210, P388, and B-16 melanoma models, results are expressed as a percentage of median control survival time. Percentage of increase in survival time and/or cures (30 day survivors) were the parameters used to measure the effectiveness of the agents. An initial median survival value for treated over control percentage (% T/C) equal to or greater than 125% was considered indicative of activity. For confirmatory activity, two multidose assays must show % T/C values equal to or greater than 150%.
# Percent increase in median life span (% ILS) values appearing in the tables were calculated from the formula; 100×(median life span in days of treated mice minus median life span in days of untreated mice) divided by median life span in days of untreated control mice. That is, % ILS=[100×(T-C)]/C. % T/C and %ILS are directly interconvertible by the formula % ILS=% T/C -100.
# L1210 Leukemic Cells (10^5 /mouse) and P388 leukemic cells (10^6 /mouse)were in the ascites form and were transferred to BD2F1 or CD2F1 mice by intraperitoneal (ip) injection of 0.1 ml of cells taken from animals bearing 6- to 7-day old tumors. Leukemic cells were injected ip one day prior to the start of treatment.
# In all of the mouse tumor studies described above, routine controls consisted of matching ten normal mice (with no tumors) to each tumor-bearing treatment group and injecting them with the same drug at the same dosages, schedules, days of administration, and drug route as the tumor-bearing mice. In this way, drug-induced toxicity (lethality and weight loss) could be clearly separated from the effects of the drug on the tumors.
# cells in culture = assay: Concentration reached in cells in culture; assay type: cell-based; conditions: compared with methotrexate
# B-Cell 8392 = assay: Inhibition of B-Cell 8392 growth in vitro; assay type: cell-based, human; conditions: 48 h; Human B-Cell 8392; read-out: ED50 (the source's name)
# Protocol: Logarithmically growing L1210 cells (approximately 3×10^5 cells/ml) were diluted with Fischer's medium (containing 10% horse serum) to an approximate concentration of 5×10^4 cells/ml. Cells were planted in duplicate into 15 ml culture tubes containing either no drug or various amounts of drug, and incubated for 48 hours at 37° C. before being counted.
# Trimetrexate was also evaluated in a similar manner side-by-side with methotrexate for its effect on the growth of three additional murine cell lines (L5178Y, Sarcoma-180, and Walkler-256) and three human cell lines (acute myelogenous leukemia K-562, T-cell 8402, and B-cell 8392), propagated in vitro.
# Lung tumor = assay: Human tumor cloning system, lung tumors; assay type: cell-based; conditions: one hour, 8 specimens
# Text: The activity of trimetrexate was compared with that of methotrexate in tests with a human tumor cloning system (Latham, et al., Proc. Am. Assoc. Cancer Res., 24: 278 (1983)). The data from these tests appear in Table III were the activities are expressed as the numbers of tumors with 50% or greater reduction in tumor colony forming units after one hour exposure to the drug.
structure (smiles),measurement,setting,value
"COc1cc(NCc2ccc3nc(N)nc(N)c3c2C)cc(OC)c1OC [Trimetrexate, 5-methyl-6-[[(3,4,5-trimethoxyphenyl)amino]methyl]-2,4-quinazolinediamine]",antitumor activity,"P388; mouse, in vivo",good activity
same,Life Span % ILS,P388; first line,143%
same,Life Span % T/C,P388; first line,243%
same,Life Span % ILS,P388; second line,142%
same,Life Span % T/C,P388; second line,242%
same,concentration reached in cells in culture,cells in culture,higher concentration than methotrexate
same,IC50,B-Cell 8392,5 nM
same,Number of Tumors with 50% or Greater Decrease in Tumor Colony Forming Units,Lung tumor; trimetrexate 0.1 μg/ml,1
same,Number of Tumors with 50% or Greater Decrease in Tumor Colony Forming Units,Lung tumor; trimetrexate 1.0 μg/ml,1
